Data from article PMC10214524, “A Systematic Approach to the Discovery of Protein–Protein Interaction Stabilizers” (ACS Central Science, 2023).
Where a SMILES comes first, the peptide text is derived from it.

Assays:
[1] = molecular target: T1, 14-3-3σ (Homo sapiens, UniProt P31947); assay: Ac-peptide competition assay against FITC-peptide (peptide affinity)
T1 sequence (P31947 1-231 limits assumed): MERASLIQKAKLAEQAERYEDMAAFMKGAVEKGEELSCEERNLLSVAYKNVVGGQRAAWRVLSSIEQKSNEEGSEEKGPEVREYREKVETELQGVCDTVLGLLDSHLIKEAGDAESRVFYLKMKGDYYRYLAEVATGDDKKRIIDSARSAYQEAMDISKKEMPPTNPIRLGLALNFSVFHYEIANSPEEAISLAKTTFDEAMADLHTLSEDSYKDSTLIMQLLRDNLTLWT
Experimental: (§1) 14-3-3σ/phosphopeptide binding curves to determine binding affinities. (A) Protein titration with 14 -3-3σ in
(§2) (B) Competition assay used to determine Ki of
(§3) acetylated FOXO1 11-mer peptide (Ac-FOXO1) for mass spectrometry experiments. Ac-FOXO1 was titrated from high to
(§4) used to determine Ki of acetylated C-RAF 11-mer peptide (Ac-CRAF). (E) Protein titration with 14-3-3σ in presence of 100
(§5) nM FITC-labeled ERα 15-mer peptide determined KD. (F) Competition assay used to determine Ki of acetylated ΕRα 15-me r
(§6) peptide (Ac-ERα). (G) Protein titration with 14-3-3σ in presence of 100 nM FITC-labeled USP8 13-mer peptide determined
(§7) KD. (H) Competition assay used to determine Ki of acetylated USP8 13-mer peptide (Ac-USP8) . ( I) Protein titration with 14 -
(§8) of acetylated SOS1 13 -mer peptide (Ac-SOS1).

[2] = molecular target: T1, 14-3-3σ; assay: 14-3-3σ titration to FITC-labeled phosphopeptide (peptide affinity)
Experimental: as §1, §2, §3, §4, §5, §6, §7, §8

Structure (SMILES)	Ki [1] [µM]	Kd [2] [µM]
CC(=O)N[C@@H](CCCNC(=N)N)C(=O)N[C@@H](CCC(N)=O)C(=O)N[C@@H](CCCNC(=N)N)C(=O)N[C@@H](CO)C(=O)N[C@H](C(=O)N[C@@H](COP(=O)(O)O)C(=O)N[C@H](C(=O)N1CCC[C@H]1C(=O)N[C@@H](CC(N)=O)C(=O)N[C@H](C(=O)N[C@@H](Cc1c[nH]cn1)C(N)=O)C(C)C)[C@@H](C)O)[C@@H](C)O [C-RAF, Ac-RQRST{pS}TPNVH-CONH2] (HELM PEPTIDE1{[ac].R.Q.R.S.T.[O=C([C@H](COP(=O)(O)O)N[*:1])[*:2]].T.P.N.V.H.[am]}$$$$V2.0)	9.5	4.64
CC(=O)N[C@@H](CCCNC(=N)N)C(=O)N1CCC[C@H]1C(=O)N[C@@H](CCCNC(=N)N)C(=O)N[C@@H](CO)C(=O)N[C@@H](CS)C(=O)N[C@H](C(=O)N[C@@H](Cc1c[nH]c2ccccc12)C(=O)N1CCC[C@H]1C(=O)N[C@@H](CC(C)C)C(=O)N1CCC[C@H]1C(=O)N[C@@H](CCCNC(=N)N)C(N)=O)[C@@H](C)OP(=O)(O)O [FOXO1, Ac-RPRSC{pT}WPLPR-CONH2] (HELM PEPTIDE1{[ac].R.P.R.S.C.[C[C@@H](OP(=O)(O)O)[C@H](N[*:1])C(=O)[*:2]].W.P.L.P.R.[am]}$$$$V2.0)	0.396	
CC(=O)N1CCC[C@H]1C(=O)N[C@@H](CCCNC(=N)N)C(=O)N[C@@H](CCCNC(=N)N)C(=O)N[C@@H](CCCNC(=N)N)C(=O)N1CCC[C@H]1C(=O)N[C@@H](CCC(=O)O)C(=O)N[C@@H](COP(=O)(O)O)C(=O)N[C@@H](C)C(=O)N1CCC[C@H]1C(=O)N[C@@H](C)C(=O)N[C@@H](CCC(=O)O)C(=O)N[C@@H](CO)C(=O)N[C@@H](CO)C(N)=O [SOS1, Ac-PRRRPE{pS}APAESS-CONH2] (HELM PEPTIDE1{[ac].P.R.R.R.P.E.[O=C([C@H](COP(=O)(O)O)N[*:1])[*:2]].A.P.A.E.S.S.[am]}$$$$V2.0)	3.66	5.06
CC[C@H](C)[C@H](NC(=O)[C@H](CC(=O)O)NC(=O)[C@@H]1CCCN1C(=O)[C@H](CO)NC(=O)[C@H](COP(=O)(O)O)NC(=O)[C@H](Cc1ccc(O)cc1)NC(=O)[C@H](CO)NC(=O)[C@H](CCCNC(=N)N)NC(=O)[C@H](CCCCN)NC(=O)[C@H](CC(C)C)NC(=O)[C@H](CCCCN)NC(C)=O)C(=O)N[C@H](C(=O)N[C@@H](CCC(N)=O)C(N)=O)[C@@H](C)O [USP8, Ac-KLKRSY{pS}SPDITQ-CONH2] (HELM PEPTIDE1{[ac].K.L.K.R.S.Y.[O=C([C@H](COP(=O)(O)O)N[*:1])[*:2]].S.P.D.I.T.Q.[am]}$$$$V2.0)	14.3	3.77
